In this experiment the target is T1, recombinant guanylate cyclase reporter cell line (Rattus norvegicus, UniProt P19686+P20595).
T1 construct: expressed in transfected cells
T1 sequence (P20595 1-619): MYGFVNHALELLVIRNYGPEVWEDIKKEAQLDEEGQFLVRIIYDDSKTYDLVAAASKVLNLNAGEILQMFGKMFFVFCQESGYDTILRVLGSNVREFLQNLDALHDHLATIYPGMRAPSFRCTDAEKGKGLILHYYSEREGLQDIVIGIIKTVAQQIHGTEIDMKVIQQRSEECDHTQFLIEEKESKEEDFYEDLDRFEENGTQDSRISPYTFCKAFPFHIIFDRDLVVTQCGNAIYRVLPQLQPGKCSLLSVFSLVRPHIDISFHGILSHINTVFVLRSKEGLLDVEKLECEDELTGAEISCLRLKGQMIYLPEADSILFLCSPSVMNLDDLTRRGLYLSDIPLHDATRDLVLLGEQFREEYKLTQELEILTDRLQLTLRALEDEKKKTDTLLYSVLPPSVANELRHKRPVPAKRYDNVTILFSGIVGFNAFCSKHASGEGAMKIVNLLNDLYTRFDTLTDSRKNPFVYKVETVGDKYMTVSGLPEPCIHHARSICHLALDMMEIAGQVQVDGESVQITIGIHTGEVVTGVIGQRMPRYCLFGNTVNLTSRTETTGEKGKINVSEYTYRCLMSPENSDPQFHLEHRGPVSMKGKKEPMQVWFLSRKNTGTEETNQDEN
T1 sequence (P19686 1-690): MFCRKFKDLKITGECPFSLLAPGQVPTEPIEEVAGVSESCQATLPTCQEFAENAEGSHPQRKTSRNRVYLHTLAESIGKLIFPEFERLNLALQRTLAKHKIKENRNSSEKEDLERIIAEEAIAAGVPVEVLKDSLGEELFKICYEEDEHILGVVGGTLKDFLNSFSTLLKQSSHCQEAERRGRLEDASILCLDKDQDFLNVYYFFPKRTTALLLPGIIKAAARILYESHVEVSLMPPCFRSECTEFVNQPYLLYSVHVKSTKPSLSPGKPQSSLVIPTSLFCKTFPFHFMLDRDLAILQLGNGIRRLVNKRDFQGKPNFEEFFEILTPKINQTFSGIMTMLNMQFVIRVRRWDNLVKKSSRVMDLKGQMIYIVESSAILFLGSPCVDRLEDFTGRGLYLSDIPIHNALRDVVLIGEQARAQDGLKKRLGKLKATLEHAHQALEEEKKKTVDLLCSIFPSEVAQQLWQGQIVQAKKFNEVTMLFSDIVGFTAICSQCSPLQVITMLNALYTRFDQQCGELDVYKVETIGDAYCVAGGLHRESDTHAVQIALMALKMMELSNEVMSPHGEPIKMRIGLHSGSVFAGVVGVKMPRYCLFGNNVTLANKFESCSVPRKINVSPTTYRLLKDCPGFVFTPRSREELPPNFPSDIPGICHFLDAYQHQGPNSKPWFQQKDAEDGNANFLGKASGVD
Kind of experiment: B-2. Action on recombinant guanylate cyclase reporter cell line. The class given is cell-based. The conditions noted are these: MEC = minimal effective concentration; in some cases mean values from individual determinations. As to the method: B-2. Action on Recombinant Guanylate Cyclase Reporter Cell Line
The cellular action of the compounds according to the invention is determined on a recombinant guanylate cyclase reporter cell line, as described in F. Wunder et al., Anal. Biochem. 339, 104-112 (2005).
Representative MEC values (MEC=minimal effective concentration) for the compounds according to the invention are shown in the following table (in some cases as mean values obtained from individual determinations): […]

In patent US9624214B2, “Amino-substituted imidazo[1,2-a]pyridinecarboxamides and their use” (BAYER PHARMA AKTIENGESELLSCHAFT, priority 2012, dated 2017) one finds MEC data, which are given here for 22 compounds.

`Cc1nc2c(OCc3c(F)cccc3F)cccn2c1C(=O)NCC(C(C)C)N(C)C` (racemic) [Example 142, rac-8-[(2,6-difluorobenzyl)oxy]-N-[2-(dimethyl-amino)-3-methylbutyl]-2-methylimidazo[1,2-a]-pyridine-3-carboxamide]: the MEC stood at 1.00 µM.

For `Cc1nc2c(OCc3c(F)cccc3F)cc(Cl)cn2c1C(=O)NCC(N)CC(F)(F)F` (racemic) [Example 147, rac-N-(2-amino-4,4,4-trifluorobutyl)-6-chloro-8-[(2,6-difluorobenzyl)oxy]-2-methylimidazo[1,2-a]pyridine-3-carboxamide], the MEC amounted to 0.30 µM. As for `CCC(C)(N)CNC(=O)c1c(C)nc2c(OCc3c(F)cccc3F)cc(Cl)cn12` (racemic) [Example 157, rac-N-(2-amino-2-methylbutyl)-6-chloro-8-[(2,6-difluorobenzyl)oxy]-2-methylimidazo[1,2-a]-pyridine-3-carboxamide], the MEC came to 0.30 µM.

Turning to `COCC(C)(N)CNC(=O)c1c(C)nc2c(OCc3c(F)cccc3F)cc(Cl)cn12` (racemic) [Example 159, rac-N-(2-amino-3-methoxy-2-methylpropyl)-6-chloro-8-[(2,6-difluorobenzyl)oxy]-2-methylimidazo[1,2-a]pyridine-3-carboxamide], the MEC came out at 0.30 µM. Consider `COCC(C)(N)CNC(=O)c1c(C)nc2c(OCc3c(F)cccc3F)cc(C)cn12` (racemic) [Example 166, rac-N-(2-amino-3-methoxy-2-methylpropyl)-8-[(2,6-difluorobenzyl)oxy]-2,6-dimethylimidazo[1,2-a]pyridine-3-carboxamide], for which the MEC amounted to 0.30 µM. On to `Cc1nc2c(OCc3c(F)cccc3F)cccn2c1C(=O)NCC(C)(N)CC(C)C` (racemic) [Example 202, rac-N-(2-Amino-2,4-dimethylpentyl)-8-[(2,6-difluorobenzyl)oxy]-2-methylimidazo[1,2-a]pyridine-3-carboxamide], for which the MEC came to 0.10 µM. With `Cc1nc2c(OCc3c(F)cccc3F)cccn2c1C(=O)NCC(N)COC(C)C` (racemic) [Example 205, rac-N-(2-Amino-3-isopropoxypropyl)-8-[(2,6-difluorobenzyl)oxy]-2-methylimidazo[1,2-a]-pyridine-3-carboxamide], the MEC worked out at 0.30 µM. As to `Cc1cc(OCc2c(F)cccc2F)c2nc(C)c(C(=O)NCC(N)COC(C)C)n2c1` (racemic) [Example 206, rac-N-(2-Amino-3-isopropoxypropyl)-8-[(2,6-difluorobenzyl)oxy]-2,6-dimethylimidazo[1,2-a]-pyridine-3-carboxamide], the MEC amounted to 0.30 µM. On to `Cc1nc2c(OCc3c(F)cccc3F)cccn2c1C(=O)NCC(N)C(F)(F)F` (racemic) [Example 207, rac-N-(2-Amino-3,3,3-trifluoropropyl)-8-[(2,6-difluorobenzyl)oxy]-2-methylimidazo[1,2-a]-pyridine-3-carboxamide], for which the MEC turned out to be 1.00 µM.

For the compound `COCC(C)(N)CNC(=O)c1c(C)nc2c(OCc3c(F)cccc3F)cccn12` (racemic) [Example 213, rac-N-(2-Amino-3-methoxy-2-methylpropyl)-8-[(2,6-difluorobenzyl)oxy]-2-methylimidazo[1,2-a]-pyridine-3-carboxamide], the MEC amounted to 1.00 µM. Turning to `Cc1nc2c(OCc3c(F)cccc3F)cc(Cl)cn2c1C(=O)NCC(N)COC(C)C` (racemic) [Example 217, rac-N-(2-Amino-3-isopropoxypropyl)-6-chloro-8-[(2,6-difluorobenzyl)oxy]-2-methylimidazo[1,2-a]pyridine-3-carboxamide], the MEC amounted to 1.00 µM.

Consider `Cc1cc(OCc2c(F)cccc2F)c2nc(C)c(C(=O)NCC(C)(N)CC(C)C)n2c1` (racemic) [Example 218, rac-N-(2-Amino-2,4-dimethylpentyl)-8-[(2,6-difluorobenzyl)oxy]-2,6-dimethylimidazo[1,2-a]-pyridine-3-carboxamide], for which the MEC stood at 0.10 µM. Regarding `Cc1nc2c(OCc3c(F)cccc3F)cc(Cl)cn2c1C(=O)NCC(C)(N)CC(C)C` (racemic) [Example 225, rac-N-(2-Amino-2,4-dimethylpentyl)-6-chloro-8-[(2,6-difluorobenzyl)oxy]-2-methylimidazo[1,2-a]pyridine-3-carboxamide], the MEC was 0.30 µM. Take `Cc1nc2c(OCc3c(F)cccc3F)cccn2c1C(=O)NCC(N)C(F)(F)C(F)F` (racemic) [Example 230, rac-N-(2-Amino-3,3,4,4-tetrafluorobutyl)-8-[(2,6-difluorobenzyl)oxy]-2-methylimidazo[1,2-a]-pyridine-3-carboxamide]: the MEC worked out at 1.00 µM. Turning to `CCCC(C)(N)CNC(=O)c1c(C)nc2c(OCc3c(F)cccc3F)cc(C)cn12` (racemic) [Example 232, rac-N-(2-Amino-2-methylpentyl)-8-[(2,6-difluorobenzyl)oxy]-2,6-dimethylimidazo[1,2-a]pyridine-3-carboxamide], the MEC came to 0.10 µM. To `Cc1cc(OCc2c(F)cccc2F)c2nc(C)c(C(=O)NCC3CCc4ccccc4N3)n2c1` (racemic) [Example 235, rac-8-[(2,6-Difluorobenzyl)oxy]-2,6-dimethyl-N-(1,2,3,4-tetrahydroquinolin-2-ylmethyl)imidazo-[1,2-a]pyridine-3-carboxamide] belongs 0.30 µM; to `Cc1nc2c(OCc3c(F)cccc3F)cc(Cl)cn2c1C(=O)NCC(C)(N)C(F)(F)F` (racemic) [Example 236, rac-N-(2-Amino-3,3,3-trifluoro-2-methylpropyl)-6-chloro-8-[(2,6-difluorobenzyl)oxy]-2-methylimidazo[1,2-a]pyridine-3-carboxamide], 0.30 µM; to `Cc1cc(OCc2c(F)cccc2F)c2nc(C)c(C(=O)NCC(C)(N)C(F)(F)F)n2c1` (racemic) [Example 239, rac-N-(2-Amino-3,3,3-trifluoro-2-methylpropyl)-8-[(2,6-difluorobenzyl)oxy]-2,6-dimethyl-imidazo[1,2-a]pyridine-3-carboxamide], 0.30 µM. `CCCC(C)(N)CNC(=O)c1c(C)nc2c(OCc3c(F)cccc3F)cc(Cl)cn12` (racemic) [Example 244, rac-N-(2-Amino-2-methylpentyl)-6-chloro-8-[(2,6-difluorobenzyl)oxy]-2-methylimidazo[1,2-a]-pyridine-3-carboxamide]: the MEC stood at 0.30 µM. On to `Cc1cc(OCCC(C)C)c2nc(C)c(C(=O)NCC(C)(N)CC(C)C)n2c1` (racemic) [Example 249, rac-N-(2-Amino-2,4-dimethylpentyl)-2,6-dimethyl-8-(3-methylbutoxy)imidazo[1,2-a]pyridine-3-carboxamide], for which the MEC was found to be 1.00 µM. For `Cc1nc2c(OCc3c(F)cccc3F)cccn2c1C(=O)NCC1CCc2ccccc2N1` (racemic) [Example 250, rac-8-[(2,6-Difluorobenzyl)oxy]-2-methyl-N-(1,2,3,4-tetrahydroquinolin-2-ylmethyl)imidazo[1,2-a]pyridine-3-carboxamide] the value was 1.00 µM. Take `CCC(C)(N)CNC(=O)c1c(C)nc2c(OCc3c(F)cccc3F)cccn12` (racemic) [Example 254, rac-N-(2-Amino-2-methylbutyl)-8-[(2,6-difluorobenzyl)oxy]-2-methylimidazo[1,2-a]pyridine-3-carboxamide]: the MEC is 0.30 µM.
